Measured values: ChEMBL document CHEMBL1133189, “Novel conformationally constrained tropane analogues by 6-endo-trig radical cyclization and stille coupling - switch of activity toward the serotonin and/or norepinephrine transporter” (J Med Chem, 2000)

Assays:
[1] = target: T1, Sodium-dependent dopamine transporter (Homo sapiens, UniProt Q01959); experiment: Compound was evaluated for inhibition of [3H]DA uptake in HEK-hDAT cells expressing Human dopamine Transporter; type: cell-based
[2] = target: T1, Sodium-dependent dopamine transporter; experiment: Compound was evaluated for binding affinity to dopamine transporter using [125I]RTI-55 as a radioligand in HEK cells expressing human transporters.; type: cell-based, HEK293
[3] = target: Sodium-dependent dopamine transporter (Rattus norvegicus, UniProt P23977); experiment: Inhibition of reuptake of [3H]DA at Dopamine transporter (DAT)
Sodium-dependent dopamine transporter (Rattus norvegicus, UniProt P23977), sequence (P23977 whole entry): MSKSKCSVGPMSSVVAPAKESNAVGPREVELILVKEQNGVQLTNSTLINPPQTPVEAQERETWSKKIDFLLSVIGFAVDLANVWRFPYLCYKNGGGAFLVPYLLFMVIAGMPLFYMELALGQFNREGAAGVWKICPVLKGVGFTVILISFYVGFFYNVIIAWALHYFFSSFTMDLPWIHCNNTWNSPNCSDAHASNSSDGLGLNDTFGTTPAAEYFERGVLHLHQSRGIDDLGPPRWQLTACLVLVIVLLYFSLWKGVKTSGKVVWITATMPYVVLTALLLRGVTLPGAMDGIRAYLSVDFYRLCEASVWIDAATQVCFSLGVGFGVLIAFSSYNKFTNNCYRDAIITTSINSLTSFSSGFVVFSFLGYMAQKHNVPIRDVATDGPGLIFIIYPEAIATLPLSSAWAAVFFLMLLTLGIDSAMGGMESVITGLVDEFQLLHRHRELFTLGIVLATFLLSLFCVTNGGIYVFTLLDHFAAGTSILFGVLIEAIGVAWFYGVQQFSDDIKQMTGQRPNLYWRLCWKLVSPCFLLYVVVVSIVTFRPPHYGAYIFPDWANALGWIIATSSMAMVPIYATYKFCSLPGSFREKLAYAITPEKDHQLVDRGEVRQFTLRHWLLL

[4] = target: Norepinephrine transporter (Rattus norvegicus, UniProt Q9WTR4); experiment: Inhibition of reuptake of [3H]-NE at Norepinephrine transporter
Norepinephrine transporter, sequence (Q9WTR4 whole entry): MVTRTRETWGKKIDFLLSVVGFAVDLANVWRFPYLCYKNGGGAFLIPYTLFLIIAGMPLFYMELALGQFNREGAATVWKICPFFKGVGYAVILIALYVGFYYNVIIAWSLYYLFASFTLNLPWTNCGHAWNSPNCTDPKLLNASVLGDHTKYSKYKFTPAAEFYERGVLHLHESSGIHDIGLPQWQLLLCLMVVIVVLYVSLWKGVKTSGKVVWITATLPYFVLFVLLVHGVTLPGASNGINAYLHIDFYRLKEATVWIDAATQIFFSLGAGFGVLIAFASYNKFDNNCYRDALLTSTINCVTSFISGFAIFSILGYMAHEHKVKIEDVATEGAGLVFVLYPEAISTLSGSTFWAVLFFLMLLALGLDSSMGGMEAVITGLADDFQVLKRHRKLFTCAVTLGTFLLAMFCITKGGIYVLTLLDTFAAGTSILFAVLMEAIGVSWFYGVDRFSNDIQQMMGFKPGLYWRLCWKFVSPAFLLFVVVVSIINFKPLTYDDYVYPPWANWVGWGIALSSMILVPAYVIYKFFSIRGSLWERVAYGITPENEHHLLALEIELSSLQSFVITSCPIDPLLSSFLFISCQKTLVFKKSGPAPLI

[5] = target: T2, Sodium-dependent noradrenaline transporter (Homo sapiens, UniProt P23975); experiment: Compound was evaluated for inhibition of [3H]NE uptake in HEK-hNET cells expressing Human norepinephrine transporter; type: cell-based
T2 sequence (P23975 whole entry): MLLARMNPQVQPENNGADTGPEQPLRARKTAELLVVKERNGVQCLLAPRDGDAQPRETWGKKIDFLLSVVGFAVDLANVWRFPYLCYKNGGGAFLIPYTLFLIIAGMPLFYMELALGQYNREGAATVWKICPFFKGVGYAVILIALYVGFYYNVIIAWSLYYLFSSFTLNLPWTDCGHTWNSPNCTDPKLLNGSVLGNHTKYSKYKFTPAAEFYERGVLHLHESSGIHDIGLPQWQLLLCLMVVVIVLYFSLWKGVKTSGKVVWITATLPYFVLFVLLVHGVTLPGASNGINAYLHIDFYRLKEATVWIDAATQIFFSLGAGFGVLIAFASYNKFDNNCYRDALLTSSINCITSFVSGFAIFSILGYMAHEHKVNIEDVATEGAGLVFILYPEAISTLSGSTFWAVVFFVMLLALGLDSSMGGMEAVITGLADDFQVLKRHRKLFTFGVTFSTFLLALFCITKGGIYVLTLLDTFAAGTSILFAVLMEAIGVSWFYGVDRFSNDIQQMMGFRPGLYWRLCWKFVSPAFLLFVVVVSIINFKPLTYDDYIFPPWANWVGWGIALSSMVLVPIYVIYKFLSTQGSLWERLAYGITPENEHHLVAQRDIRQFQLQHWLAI

[6] = target: T3, Sodium-dependent serotonin transporter (Homo sapiens, UniProt P31645); experiment: Compound was evaluated for binding affinity using [125I]RTI-55 as a radioligand in HEK-hSERT cells expressing human serotonin transporter; type: cell-based
T3 sequence (P31645 whole entry): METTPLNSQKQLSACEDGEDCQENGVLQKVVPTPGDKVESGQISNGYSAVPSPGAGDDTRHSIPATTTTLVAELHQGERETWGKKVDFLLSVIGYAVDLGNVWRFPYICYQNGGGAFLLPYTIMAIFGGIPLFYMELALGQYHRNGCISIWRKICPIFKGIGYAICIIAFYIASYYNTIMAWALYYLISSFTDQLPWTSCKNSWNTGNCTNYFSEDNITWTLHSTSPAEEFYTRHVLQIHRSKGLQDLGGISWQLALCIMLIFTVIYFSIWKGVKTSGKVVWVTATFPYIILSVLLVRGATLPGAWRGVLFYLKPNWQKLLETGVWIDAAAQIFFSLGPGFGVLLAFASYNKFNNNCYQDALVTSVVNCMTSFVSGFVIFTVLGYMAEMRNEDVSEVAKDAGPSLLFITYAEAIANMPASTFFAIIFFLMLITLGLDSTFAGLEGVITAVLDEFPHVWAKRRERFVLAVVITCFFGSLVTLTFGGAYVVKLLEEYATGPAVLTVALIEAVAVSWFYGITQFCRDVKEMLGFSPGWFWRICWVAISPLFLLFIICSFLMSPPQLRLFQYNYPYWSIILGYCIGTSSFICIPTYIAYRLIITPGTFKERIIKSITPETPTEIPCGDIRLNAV

[7] = target: Sodium-dependent serotonin transporter (Rattus norvegicus, UniProt P31652); experiment: Inhibition of reuptake of [3H]5-HT at serotonin transporter
Sodium-dependent serotonin transporter (Rattus norvegicus, UniProt P31652), sequence (P31652 whole entry): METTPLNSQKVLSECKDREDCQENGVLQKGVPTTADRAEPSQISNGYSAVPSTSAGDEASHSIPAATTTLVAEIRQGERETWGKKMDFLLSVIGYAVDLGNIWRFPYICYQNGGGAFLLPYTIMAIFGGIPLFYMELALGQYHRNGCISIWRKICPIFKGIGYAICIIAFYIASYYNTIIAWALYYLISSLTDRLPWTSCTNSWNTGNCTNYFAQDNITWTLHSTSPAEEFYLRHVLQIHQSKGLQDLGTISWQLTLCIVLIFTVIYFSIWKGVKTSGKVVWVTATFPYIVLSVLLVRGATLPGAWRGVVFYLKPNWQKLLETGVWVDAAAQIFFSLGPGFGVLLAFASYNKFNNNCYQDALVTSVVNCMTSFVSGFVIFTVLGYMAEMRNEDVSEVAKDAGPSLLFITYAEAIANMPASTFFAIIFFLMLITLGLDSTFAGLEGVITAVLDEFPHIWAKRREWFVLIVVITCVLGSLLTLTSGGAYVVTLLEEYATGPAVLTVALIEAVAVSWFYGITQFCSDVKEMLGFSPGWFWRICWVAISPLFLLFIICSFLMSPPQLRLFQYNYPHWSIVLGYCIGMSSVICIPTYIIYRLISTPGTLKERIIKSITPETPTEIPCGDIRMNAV

[8] = target: T2, Sodium-dependent noradrenaline transporter; experiment: Compound was evaluated for binding affinity using [125I]RTI-55 as a radioligand in HEK-hNET cells expressing human norepinephrine transporter; type: cell-based
[9] = target: T3, Sodium-dependent serotonin transporter; experiment: Compound was evaluated for inhibition of [3H]5-HT uptake in HEK-hSERT cells expressing Human serotonin transporter; type: cell-based

T1 sequence (Q01959 whole entry): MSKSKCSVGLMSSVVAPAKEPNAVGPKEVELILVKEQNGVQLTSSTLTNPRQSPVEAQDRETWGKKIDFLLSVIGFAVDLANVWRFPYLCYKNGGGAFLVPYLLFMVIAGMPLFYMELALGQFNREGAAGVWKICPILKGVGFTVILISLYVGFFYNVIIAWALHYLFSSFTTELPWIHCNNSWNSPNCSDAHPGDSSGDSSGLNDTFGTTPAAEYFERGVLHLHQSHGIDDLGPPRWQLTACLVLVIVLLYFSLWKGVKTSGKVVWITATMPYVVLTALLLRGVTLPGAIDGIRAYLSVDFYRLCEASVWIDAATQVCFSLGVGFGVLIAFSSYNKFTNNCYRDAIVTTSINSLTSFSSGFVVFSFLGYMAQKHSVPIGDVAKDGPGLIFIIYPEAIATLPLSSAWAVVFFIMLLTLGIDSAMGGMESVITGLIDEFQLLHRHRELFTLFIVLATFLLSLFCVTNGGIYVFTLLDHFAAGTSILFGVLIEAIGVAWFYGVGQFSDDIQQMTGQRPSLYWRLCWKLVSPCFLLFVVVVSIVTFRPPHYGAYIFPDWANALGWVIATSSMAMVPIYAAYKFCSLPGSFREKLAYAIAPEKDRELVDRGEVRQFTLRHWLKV

Compound	Ki [1]	Ki [2]	Ki [3]	Ki [4]	Ki [5]	Ki [6]	Ki [7]	Ki [8]	Ki [9]
COC(=O)[C@H]1C2CC[C@@H]3C[C@@H]1/C(=C/c1ccccc1)CN23	0.91 µM	1.57 µM	481 nM	53 nM	68 nM	2330 nM	1140 nM	1.04 µM	2400 nM
COC(=O)[C@H]1C2CC[C@@H]3C[C@@H]1/C(=C/c1ccc(F)cc1)CN23	–	–	6620 nM	584 nM	–	–	335 nM	–	–
CC(=O)OC[C@H]1C2CC[C@@H]3C[C@@H]1/C(=C/c1ccccc1)CN23	–	–	1030 nM	450 nM	–	–	1050 nM	–	–
OC[C@H]1C2CC[C@@H]3C[C@@H]1/C(=C/c1ccccc1)CN23	–	–	9690 nM	2830 nM	–	–	5300 nM	–	–
COC(=O)[C@H]1C2CC[C@@H]3C[C@@H]1/C(=C/c1ccoc1)CN23	–	–	1880 nM	164 nM	–	–	498 nM	–	–
COC(=O)[C@H]1C2CC[C@@H]3C[C@@H]1/C(=C/c1ccc(-c4ccccc4)cc1)CN23	–	–	477 nM	12 nM	–	–	614 nM	–	–
COC(=O)[C@H]1C2CC[C@@H]3C[C@@H]1/C(=C/c1cccs1)CN23	–	–	268 nM	26 nM	–	–	2050 nM	–	–
COC(=O)[C@H]1C2CC[C@@H]3C[C@@H]1/C(=C/c1ccc(OC)cc1)CN23	3.7 µM	3.6 µM	3130 nM	187 nM	208 nM	42 nM	56 nM	5.44 µM	53 nM
COC(=O)[C@H]1C2CC[C@@H]3C[C@@H]1/C(=C\c1ccccc1)CN23	–	–	5070 nM	1530 nM	–	–	7480 nM	–	–
COC(=O)[C@H]1C2CC[C@@H]3C[C@@H]1/C(=C/c1ccco1)CN23	–	–	2020 nM	111 nM	–	–	3680 nM	–	–
OC[C@H]1C2CC[C@@H]3C[C@@H]1/C(=C/c1ccc(Cl)c(Cl)c1)CN23	–	–	21300 nM	10500 nM	–	–	96 nM	–	–
COC(=O)[C@H]1C2CC[C@@H]3C[C@@H]1/C(=C/c1cccc4ccccc14)CN23	–	–	9720 nM	5370 nM	–	–	121 nM	–	–
COC(=O)[C@H]1C2CC[C@@H]3C[C@@H]1/C(=C/c1ccc(Cl)c(Cl)c1)CN23 (stereo in doubt; 5b)	> 10 µM	3.32 µM	1920 nM	1000 nM	640 nM	0.56 nM	20 nM	3.77 µM	30 nM
